Measurements: patent US20130064794A1, “Substituted Carbonyloxymethylphosphoramidate Compounds and Pharmaceutical Compositions for the Treatment of Viral Infections” (IDENIX PHARMACEUTICALS, INC., priority 2011, published 2013)
Where two headings read alike, the source gives them in different places.

Tests used:
HCV genotype 1b replicon = assay: microbe, parasite or virus in culture; assay type: cell-based; conditions: read-out: HCV Replicon EC50
Experimental: Huh-7-derived cell line (Zluc) that harbors an HCV genotype 1b replicon and a luciferase reporter gene was grown in Dulbecco's Modified Eagle Medium (DMEM) supplemented with 10% fetal bovine serum, 2 mM GlutaMAX, 1% MEM nonessential amino acids, 100 IU/mL penicillin, 100 μg/mL streptomycin, and 0.5 mg/mL Geneticin® (G418). For dose response testing the cells were seeded in 96-well plates at 7.5×10^3 cells per well in a volume of 50 μL, and incubated at 37° C./5% CO2. Drug solutions were made up freshly in Huh-7 media as 2× stocks. Ten additional 5-fold dilutions were prepared from these stocks in DMEM without G418. At least three hours after Zluc cells were seeded, drug treatment was initiated by adding 50 μL of drug dilutions to the plates in duplicate. […] Cells were then incubated at 37° C./5% CO2. Alternatively compounds were tested at two concentrations (10 nM and 100 nM). […] For this, media was removed from the plates via gentle tapping. Fifty microliters of ONE-glo luciferase assay reagent was added to each well. […] The EC50 values were calculated from dose response curves from the resulting best-fit equations determined by Microsoft Excel and XLfit 4.1 software.

[1] = Stability in simulated gastric fluid (SGF); assay type: in vitro ADME; conditions: 100 μM, 2 hours at 37° C.
Experimental: Simulated gastric and intestinal fluids containing pepsin and pancreatin respectively were prepared according to the U.S. Pharmacopoeia USP291 procedure (www.pharmacopeia.cn/v29240/usp29nf24s0_ris1s126.html). Test compound (final concentration 100 μM) was incubated in duplicate in the appropriate fluid for 2 hours at 37° C. The samples were quenched with 200 μl cold acetonitrile, vortexed for 30 seconds and then centrifuged at 16,100 g for 10 min. The supernatants were analyzed by HPLC on a C-18 column with UV detection at 252 nm. The time 0 samples were prepared by adding SGF or SIF fluid to the quenching solvent followed by the test compound. Stability of the compound was determined by peak area the test compound after incubation and calculated as percent of the peak area observed at time zero.

[2] = Stability in human liver microsomes (HLM); assay type: in vitro ADME; conditions: 10 μM, 1.0 mg/mL protein, NADPH, 60 min
Experimental: (§1) Stability of Compound 1 and its diastereomer were determined in subcellular fractions (microsomes and S9) of human liver and intestine in duplicate for each matrix. Pooled liver and intestinal microsomal, intestinal and liver S9 proteins (1.0 mg/mL), suspended in incubation buffer (100 mM potassium phosphate, pH 7.4, 5 mM MgCl2, and 0.1 mM EDTA), were preincubated for 5 min at 37° C. with 10 μM of a test compound from a 10 mM stock solution in DMSO (final DMSO concentration was 0.1%); the reaction was initiated by the addition of NADPH (3 mM final concentration). At specific times (0 and 60 min), 0.1 mL samples were taken and the reaction terminated by the addition of 4 volumes of stop solution (acetonitrile with 500 ng/mL carbutamide as an internal standard). The samples were vortexed for 30 sec and then centrifuged at 16,000 g for 10 min. 100 μL of supernatants were transferred to 96 deep-well plates preloaded with 100 μL distilled water and analyzed after mixing by LC-MS/MS. The MS peak area ratio of the test compound versus the internal standard was calculated and percent unchanged test compound over 60 minutes was calculated using this ratio.

[3] = Stability in human intestinal microsomes (HIM); assay type: in vitro ADME; conditions: 10 μM, 1.0 mg/mL protein, NADPH, 60 min
Experimental: as §1

Huh-7 cells = assay: Release of active metabolite in Huh-7 cells; assay type: in vitro ADME; conditions: intracellular triphosphate, 10 μM test compound
Experimental: Huh-7 cells were plated in 1 mL culture medium (DMEM, containing glucose, L-glutamine and sodium pyruvate, 10% FBS, 100 IU/mL penicillin, 100 μg/mL streptomycin, 2 mM GlutaMAX, 1% MEM non-essential amino acids) at the concentration 0.8, 0.4 and 0.2 million cells per well on 6 well plates for 24, 48 and 72 hr treatment, respectively. Plated cells were incubated overnight at 37° C. in an incubator.
The following morning the test compound was diluted to 20 μM from a stock solution in DMSO in fresh culture medium pre-warmed to 37° C. and 1 mL of the solution/well was added to cells. A final medium volume per well was 2.0 mL, the test compound concentration in well was 10 μM and final DMSO concentration was 0.1%.
After 24, 48 or 72 hr, the medium was carefully removed and cell monolayers were washed twice with 2 mL ice-cold PBS per well. Following the last wash, all PBS was carefully removed and 1.0 mL of extraction solution (ice-cold 70% methanol) added. The plate was tightly covered with Parafilm, plastic plate cover and Parafilm again and an intracellular content was extracted at −20° C. for 24 hr.
After 24 hr extracts were transferred into polypropylene microfuge tubes and dry on a refrigerated centrivap concentrator. Dry residues were reconstituted in 250 μL of HPLC-grade water and centrifuged at 16,000×g for 10 min. […]

fresh human hepatocytes = assay: Release of active metabolite in fresh human hepatocytes; assay type: in vitro ADME; conditions: intracellular triphosphate, 10 μM test compound
Experimental: Plates of fresh human and mouse hepatocytes were obtained on ice. The medium was removed and replaced with hepatocyte culture medium (William's E supplemented with penicillin-streptomycin, 1% L-glutamine, 1% insulin-transferrin-selenium and 0.1 μM Dexamethasone (Invitrogen) or with Invitro GRO HI medium complemented with Torpedo antibiotics (Celsis)). Cells were left overnight in an incubator at 37° C. to acclimatize to culture and the medium.
Hepatocyte incubations were conducted at a final volume of 0.5 mL hepatocyte culture medium/well (0.8 million cells/well for human and 0.5 million cells/well for mouse; 12 well plate no overlay, collagen coat). Culture medium from overnight incubation of cells was removed and replaced with fresh medium, pre-warmed to 37° C., containing 10 μM of the test compound from a stock solution in DMSO (final DMSO concentration was 0.1%). At each specific time point, incubation medium was removed and cell monolayers were carefully washed two times with ice-cold PBS. Following the last wash, all PBS was carefully removed and 1.0 mL of extraction solution (ice-cold 70% methanol/30% water) added. Cells were scraped off and suspended in the extraction solution, transferred to 2 mL polypropylene microfuge tubes and intracellular contents extracted overnight at −20° C.
After the overnight treatment the cellular extracts were prepared by centrifugation at 16,000×g for 10 min to remove cellular debris. The remaining sample was then dried using a refrigerated centrivap concentrator. Dry extracts were reconstituted in 1000 μL of HPLC-grade water and centrifuged at 16,000×g for 10 min. Aliquots (100 μL each) of the supernatant were transferred into a 96 well plate and 2′-C-methyl-adenosine 5′-triphosphate, trisodium salt (4 ng/mL final concentration) was added as the internal standard (1S) for LC-MS/MS analysis.
The incubation time points were 6, 24 and 48 hours for human hepatocytes and 1, 4, 8, 12 and 24 hours for mouse hepatocytes.

CCOC(=O)OC(C)OP(=O)(N[C@@H](C)C(=O)OC(C)C)OC[C@H]1O[C@@H](n2cnc3c(OC)nc(N)nc32)[C@](C)(F)[C@@H]1O (single isomer, unassigned) [Compound 15]
EC50 (HCV genotype 1b replicon; Zluc cells, HCV genotype 1b replicon, luciferase, 72 hours of incubation): < 100 nM | Percent Remaining, SGF [1]: 97% | Percent Remaining, HLM (1 hr) [2]: 0% | Percent Remaining, HIM (1 hr) [3]: 54% | Huh-7 TP Cmax (Huh-7 cells): 198 pmol/mill cells | FHH TP AUC (fresh human hepatocytes): 4453 pmol.hr/mill cells | FHH TP Cmax (fresh human hepatocytes): 139 pmol/mill cells

CCOC(=O)OC(C)OP(=O)(N[C@@H](C)C(=O)OC(C)C)OC[C@H]1O[C@@H](n2cnc3c(OC)nc(N)nc32)[C@](C)(F)[C@@H]1O (single isomer, unassigned) [Compound 14]
EC50 (HCV genotype 1b replicon; Hepatitis C virus, 72 h): < 100 nM | Percent Remaining, SGF [1]: 91% | Percent Remaining, HLM (1 hr) [2]: 0% | Percent Remaining, HIM (1 hr) [3]: 41% | Huh-7 TP Cmax (Huh-7 cells): 410 pmol/mill cells | FHH TP AUC (fresh human hepatocytes): 4006 pmol.hr/mill cells | FHH TP Cmax (fresh human hepatocytes): 155 pmol/mill cells
